Legend:
[1] = system: Trichophyton rubrum (ATCC-28188); test: Checkerboard assay of fatty acid/ester with antifungals on Trichophyton rubrum (ATCC 28188); format: cell-based; set-up: key to FIC index: FIC index = sum of FICs; FIC = agent conc in well / agent MIC; conditions: for MIC: Trichophyton rubrum, ATCC28188, agent alone
Protocol: (§1) The synergy is measured by determining the fractional inhibitory concentration (FIC) value of the combination. This experimental set up, called checkerboard method, allows measurement of a desired effect (inhibition of fungal growth in this case) at different combinations of various concentrations of the two agents (antifungal agent and fatty acid/ester). […] No agent is added to the penultimate column on the right and the bottom row. The final column on the right is used for growth control (only inoculum in broth) and sterility control (broth alone, no inoculum). […] FIC value for each agent in a particular well of the checkerboard layout was calculated by dividing the agent concentration in that well by the established MIC value of the agent against the test organism (Hsieh et al., Synergy assessed by checkerboard: A critical Analysis, Diagn. Microbiol. Infect Dis. (1993) 16:343-349). FIC values for both agents in a particular well were calculated in this way followed by determination of the FIC index (sum of the FICs of each drug in the concerned well). […] Agents Chemother. (2010) 54(2): 602-609].
(§2) Using the checkerboard layout experimental setup described above (FIG. 1A), various medium-chain fatty acids were tested for their ability to potentiate the activity of a known antifungal agent. Concentrations above and below the MIC of each test agent were tested using serial dilution. The same procedure was expanded to test combinations of various medium-chain fatty acids C-1 to C-14 (such caprylic acid, undecylenic acid and lauric acid) and esters thereof, with antifungal agents from various classes including azoles, allylamines, benzylamines, zinc pyrithione and piroctone olamine against both susceptible and resistant Trichophyton spp. (filamentous fungus) and Candida spp. (yeast).
(§3) Potentiation of the activity of antimycotic agents using ester derivatives of medium chain fatty acids was tested in a standard, well accepted in vitro assay system to check for synergy. This experimental set up, called checkerboard method, allows measurement of a desired effect (inhibition of fungal growth in this case) at different combinations of various concentrations of two agents. A chosen medium chain fatty acid (C-1 to C-14) or its ester derivative was tested for its ability to potentiate the activity of a known antifungal agent (various classes) using the checkerboard layout. Various concentrations above and below the MIC of each test agent were tested using serial dilution in Sabouraud dextrose broth. […] FIC value for a drug in a particular well of the checkerboard layout is calculated by dividing the drug concentration in that well by the established MIC value of the drug against the test organism (Hsieh et al., Synergy assessed by checkerboard: A critical Analysis, Diagn. Microbiol. Infect Dis. (1993) 16:343-349). FIC values for both test agents in a particular well are calculated in this way followed by determination of the FIC index (sum of the FICs of each drug in the concerned well).

[2] = system: azole resistant C. albicans MTCC 227; test: Checkerboard assay on azole resistant C. albicans MTCC 227; format: cell-based, Candida albicans; conditions: for MIC: Candida albicans, MTCC227, agent alone
Protocol: as §1, with “FIC” for “FIC value for each agent in a particular well of the checkerboard layout was calculated by dividing the agent concentration in that well by the established MIC value of the agent against the test organism (Hsieh et al., Synergy assessed by checkerboard: A critical Analysis, Diagn. Microbiol. Infect Dis. (1993) 16:343-349). FIC”, “Chemother.” for “Chemother. (2010) 54(2): 602-609].”
as §2
as §3, with “FIC” for “FIC value for a drug in a particular well of the checkerboard layout is calculated by dividing the drug concentration in that well by the established MIC value of the drug against the test organism (Hsieh et al., Synergy assessed by checkerboard: A critical Analysis, Diagn. Microbiol. Infect Dis. (1993) 16:343-349). FIC”

[3] = agent's MIC in combination antifungal + caprylic acid (partner: other agent of same combination no.)
[4] = agent's MIC in combination antifungal + glyceryl monocaprylate (partner: other agent of same combination no.)
[5] = agent's MIC in combination antifungal + lauric acid (partner: other agent of same combination no.)
[6] = agent's MIC in combination antifungal + propylene glycol monocaprylate (partner: other agent of same combination no.)
[7] = agent's MIC in combination antifungal + propylene glycol monolaurate (partner: other agent of same combination no.)
[8] = agent's MIC in combination antifungal + undecylenic acid (partner: other agent of same combination no.)
[9] = antifungal in combination with caprylic acid
[10] = antifungal in combination with glyceryl monocaprylate
[11] = antifungal in combination with lauric acid
[12] = antifungal in combination with propylene glycol monocaprylate
[13] = antifungal in combination with propylene glycol monolaurate
[14] = antifungal in combination with undecylenic acid
[15] = combination antifungal + caprylic acid
[16] = combination antifungal + glyceryl monocaprylate
[17] = combination antifungal + lauric acid
[18] = combination antifungal + propylene glycol monocaprylate
[19] = combination antifungal + propylene glycol monolaurate
[20] = combination antifungal + undecylenic acid

How did the MIC ([1]; Table 1, caprylic acid series) turn out when `C=C1CCN([C@H](C)[C@](O)(Cn2cncn2)c2ccc(F)cc2F)CC1` [Efinaconazole] was run?
The MIC was 0.125 µg/mL.

What about the MIC ([1]; Table 2, propylene glycol monocaprylate series) of the same compound?
The MIC was 0.125 µg/mL.

What about the MIC ([1]; Table 3, glyceryl monocaprylate series) of the same compound?
The MIC was 0.125 µg/mL.

What about the MIC ([1]; Table 4, undecylenic acid (C11) series) of the same compound?
Its MIC is 0.03 µg/mL.

What about the MIC ([1]; Table 5, lauric acid (C12) series) of the same compound?
Its MIC is 0.03 µg/mL.

What about the MIC ([1]; Table 6, propylene glycol monolaurate series) of the same compound?
The MIC was 0.03 µg/mL.

What about the “Combination MIC” value [1, 3] of the same compound?
The value was 0.0625 µg/mL.

And the “Combination MIC” value [1, 4]?
The value was 0.0625 µg/mL.

What about the “Combination MIC” value [1, 5] of the same compound?
Its value is 0.015 µg/mL.

And the “Combination MIC” value [1, 6]?
Its value is 0.007 µg/mL.

What about the “Combination MIC” value [1, 7] of the same compound?
The value was 0.008 µg/mL.

What about the “Combination MIC” value [1, 8] of the same compound?
The value was 0.015 µg/mL.

What about the FIC index [1, 9] of the same compound?
The FIC index was 0.625.

And the Interaction [1, 9]?
Its Interaction is “Synergistic (Combinations that gave FIC indices less than 1 were designated “synergistic”)”.

What about the FIC index [1, 10] of the same compound?
Its FIC index is 0.625.

And the Interaction [1, 10]?
The Interaction was “Synergistic (Combinations that gave FIC indices less than 1 were designated “synergistic”)”.

What about the FIC index [1, 11] of the same compound?
The FIC index was 0.75.

And the Interaction [1, 11]?
Its Interaction is “Synergistic (Combinations that gave FIC indices less than 1 were designated “synergistic”)”.

And the FIC index [1, 12]?
Its FIC index is 0.556.

And the Interaction [1, 12]?
The Interaction was “Synergistic (Combinations that gave FIC indices less than 1 were designated “synergistic”)”.

What about the FIC index [1, 13] of the same compound?
Its FIC index is 0.76.

And the Interaction [1, 13]?
Its Interaction is “Synergistic (Combinations that gave FIC indices less than 1 were designated “synergistic”)”.

And the FIC index [1, 14]?
Its FIC index is 0.74.

What about the Interaction [1, 14] of the same compound?
The Interaction was “Synergistic (Combinations that gave FIC indices less than 1 were designated “synergistic”)”.

And the FIC [1, 15]?
The FIC was 0.5.

And the FIC [1, 16]?
The FIC was 0.5.

And the FIC [1, 17]?
Its FIC is 0.5.

What about the FIC [1, 18] of the same compound?
Its FIC is 0.056.

What about the FIC [1, 19] of the same compound?
Its FIC is 0.266.

And the FIC [1, 20]?
The FIC was 0.5.

What about the MIC ([2]; Table 9, caprylic acid (C8) series) of the same compound?
The MIC was 128 µg/mL.

And the MIC ([2]; Table 10, propylene glycol monocaprylate series)?
Its MIC is 128 µg/mL.

What about the MIC ([2]; Table 11, glyceryl monocaprylate series) of the same compound?
The MIC was 128 µg/mL.

And the MIC ([2]; Table 12, undecylenic acid (C11) series)?
The MIC was 128 µg/mL.

And the MIC ([2]; Table 13, lauric acid (C12) series)?
Its MIC is 128 µg/mL.

And the MIC ([2]; Table 14, propylene glycol monolaurate series)?
Its MIC is 128 µg/mL.

What about the “Combination MIC” value [2, 3] of the same compound?
The value was 0.5 µg/mL.

And the “Combination MIC” value [2, 4]?
The value was 1 µg/mL.

What about the “Combination MIC” value [2, 5] of the same compound?
The value was 0.5 µg/mL.

And the “Combination MIC” value [2, 6]?
Its value is 4 µg/mL.

And the “Combination MIC” value [2, 7]?
Its value is 0.5 µg/mL.

What about the “Combination MIC” value [2, 8] of the same compound?
The value was 4 µg/mL.

What about the FIC index [2, 9] of the same compound?
Its FIC index is 0.3.

What about the Interaction [2, 9] of the same compound?
Its Interaction is “Synergistic (Combinations that gave FIC indices less than 1 were designated “synergistic”)”.

And the FIC index [2, 10]?
Its FIC index is 0.257.

And the Interaction [2, 10]?
The Interaction was “Synergistic (Combinations that gave FIC indices less than 1 were designated “synergistic”)”.

What about the FIC index [2, 11] of the same compound?
The FIC index was 0.128.

And the Interaction [2, 11]?
The Interaction was “Synergistic (Combinations that gave FIC indices less than 1 were designated “synergistic”)”.

What about the FIC index [2, 12] of the same compound?
Its FIC index is 0.281.

And the Interaction [2, 12]?
The Interaction was “Synergistic (Combinations that gave FIC indices less than 1 were designated “synergistic”)”.

What about the FIC index [2, 13] of the same compound?
Its FIC index is 0.018.

And the Interaction [2, 13]?
Its Interaction is “Synergistic (Combinations that gave FIC indices less than 1 were designated “synergistic”)”.

And the FIC index [2, 14]?
Its FIC index is 0.093.

And the Interaction [2, 14]?
The Interaction was “Synergistic (Combinations that gave FIC indices less than 1 were designated “synergistic”)”.

And the FIC [2, 15]?
Its FIC is 0.062.

And the FIC [2, 16]?
The FIC was 0.007.

And the FIC [2, 17]?
Its FIC is 0.003.

And the FIC [2, 18]?
Its FIC is 0.031.

What about the FIC [2, 19] of the same compound?
The FIC was 0.003.

And the FIC [2, 20]?
The FIC was 0.031.
